Read-outs that look alike come from different tables or passages of the source.
Legend:
Type in all cases: cell-based
[1] = target: T1, HPV16 E7 protein (Human papillomavirus type 16, UniProt P03129); settings: CaSki cells; for % Dad: adjusted degradation, CHX steady state set to 100% degradation
T1 construct: endogenous in cells; host or cells: CaSki cells (HPV16-positive cervical carcinoma)
Protocol: For intracellular antibody labeling, 0.5×10^6 cells are washed once with 1 ml ice-cold PBS. Cells are centrifuged at 350×g for 5 minutes at 4° C. and then fixed in 1% paraformaldehyde (1 ml/10^6 cells) for 20 minutes at 4° C. Cells are washed with 1 ml ice-cold PBS and centrifuged at 350×g for 5 minutes at 4° C. To permeabilize cells, 100% ice-cold methanol (1 ml/10^6 cells) is added to the cells and incubated for 20 minutes at 4° C. followed by centrifugation at 350×g for 5 minutes at 4° C. Cells are washed with 1 ml ice-cold PBS, centrifuged at 350×g for 5 minutes at 4° C. and resuspended in 0.1% saponin+2% FBS in PBS (ice-cold). Cells are left for 20-30 minutes at room temperature to reduce the background signal and then centrifuged at 350×g for 5 minutes at 4° C. The primary antibody (mAb_HPV16E7-1 (VS13004); concentration 1 μg/μl) is diluted in 0.1% saponin+2% FBS (dilution 0.25 μg/50 μl of incubation buffer per 1×10^6 cells (5 ng/μl)). Cells are incubated with primary antibody for 30 minutes at room temperature, washed with 0.1% saponin+2% FBS and centrifuged at 350×g for 5 minutes at 4° C. The secondary antibody (FITC conjugated goat anti-mouse IgG1-IgM, BD, cat. #555988) is diluted in 0.1% saponin+2% FBS (dilution 1:50). Cells are incubated with secondary antibody for 30 minutes at room temperature, washed once with 0.1% saponin+2% FBS, once with PBS and centrifuged at 350×g for 5 minutes at 4° C.
Cells are resuspended in 700 μl PBS prior to CF analysis with a Beckman Coulter FC 500 MPL, (excitation laser 488 nm). Data analysis is done using the Beckman Coulter software packages MXP for acquisition and CXP for data analysis which includes MFI calculation. Detection of HPV-E7 protein expression is based on morphology back-gating of FL1 histogram (logarithmic scale) with gating for dot plot FS (Forward Scatter) log/SS (Sideward Scatter) log and gating for histograms SS log.
In order to define the level of E7 protein expression and to study the extent of E7 protein steady state level reduction in E7 expressing cells in the presence of various compounds, FC analysis is implemented using the intracellular antibody labeling procedure for monoclonal antibodies to HPV E7. E7 signal intensities are analyzed from the obtained FL1 histograms at logarithmic scale. The FL1 single histogram graph represents the variation in the mean fluorescence intensity (MFI) channel for cells treated with selected compounds compared to cells not incubated with primary antibodies but incubated with secondary, which allows to test for auto-fluorescence, and non-compound treated cells as controls. Non-primary antibody-stained cells are used to set the acquisition parameters to zero. Decrease of the mean fluorescence intensity channel corresponds to a decrease in the expression of HPV16 E7 protein. Degradation of E7 in cells is calculated as percent (%) reduction in MFI(x-Me) using the following formulas: % Drel=(T−C)/T*100; i) relative degradation: % Dad=(T−C)/(T−CHX)*100; ii) adjusted degradation: • Drel=relative degradation, • Dad=adjusted degradation assuming CHX % Drel=100; • T=MFI of non-treated cells; • C=MFI of compound treated cells; • CH=MFI of cycloheximide (CHX) treated cells;
For comparison within one experiment i) the % relative degradation (Drel) is sufficient, whereas for comparison between two or more experiments ii) the adjusted degradation (Dad) is used and CHX steady state is set to a 100% degradation parameter.
1×10^6 freshly seeded CaSki cells (ATCC CRL-7915), are grown in 10 cm diameter cell culture dishes in RPMI1640, 10% FCS medium at 37° C. 5% CO2 overnight and then incubated in the presence of 10 μM Cycloheximide (CHX) 10 μM OC246 or with vehicle alone for four hours at 37° C. 5% CO2. Following this E7 protein is assessed by cytofluorimetric analysis using intracellular HPV16 E7 antibody labeling. […]

[2] = system: CaSki (ATCC CRM-CRL-1550); assay: Monolayer assay using Sulphorhodamine B (SRB) staining, CaSki; settings: Homo sapiens, Ca-Ski
Protocol: Various cell culture cells grown as monolayers are harvested from exponential growing cultures after treatment with various OC compounds at different concentrations. For this depending on the cell line, 10.000 to 30.000 cells were plated in 96-well flat-bottom microtiter plates. After a 24 h recovery period to allow cells to resume exponential growth, supernatants are discarded and 100 μl of culture medium (eight control wells/plate) or culture medium with the test compound are added by a liquid handling robotic system (Microlab® Starlet, Hamilton) and treatment continued for 72 hrs. Compounds are applied at 9 concentrations and eight wells/concentration). At least three independent experiments are performed. For SRB staining, cells are fixed with SRB01 (Tab. 5) for 1 h at 4° C. (final concentration of TCA=10%) washed with a plate washer (Hydroflex, Tecan©) for five times with H2O; and stained with 100 μl of SRB02 at room temperature for 10 min following 4 washes in SRB03 and finally 100 μl of developer solution SRB04 for 5 minutes with shaking. Optical density is assessed using a plate-reader (Sunrise, Tecan©) at 540 nm.
Concentrations required for half maximal response of the compound for cell growth inhibition (EC50) is calculated by non-linear regression (log[conc. of inhibitor] versus response (% T/C)) using the analysis software GraphPad Prism®, Prism 5 for windows, version 5.01 (GraphPad Software Inc., CA).

[3] = system: SARS-CoV-2 isolate BetaCov/Belgium/GHB-03021/2020; assay: microbe, parasite or virus in culture; settings: 1.25 μM (non-toxic compound concentration), n4; for inhibition at 1.25 µM: Severe acute respiratory syndrome coronavirus 2
[4] = SRB assay from Caski cells, “0” = no activity detected with the concentrations tested, read-out: EC50 mean

T1 sequence (P03129 whole entry): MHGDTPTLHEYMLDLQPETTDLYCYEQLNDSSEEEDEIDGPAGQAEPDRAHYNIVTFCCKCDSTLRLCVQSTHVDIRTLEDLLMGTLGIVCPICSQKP

| Structure (SMILES) | % Dad [1] | inhibition at 1.25 µM [3] | other results |
| --- | --- | --- | --- |
| COc1ccc2c(c1)C(=O)N(Cc1ccc(C)cc1)[C@@H](c1ccc(C(F)(F)F)cc1)[C@@H]2C(=O)Nc1cccc(N2CCN(C)CC2)c1 (relative stereo) [OC969] | 66% |  |  |
| CC(=O)Nc1ccc2c(c1)C(=O)N(Cc1ccc(C)cc1)[C@@H](c1ccc(C(F)(F)F)cc1)[C@@H]2C(=O)Nc1cccc(N2CCN(C)CC2)c1 (relative stereo) [OC970] | 20% | 3.03% | EC50 ([2]; read-out: EC50 mean [nM]): 5550 nM |
| COc1cc2c(cc1OC)[C@@H](C(=O)Nc1cccc(N3CCN(C)CC3)c1)[C@H](c1ccc(C(F)(F)F)cc1)N(Cc1ccc(C)cc1)C2=O (relative stereo) [OC971] | 26% |  |  |
| C[C@@H]1C[C@@H]([C@H](O)CC2CC(=O)NC(=O)C2)C(=O)[C@@H](C)C1 [CHX, Cycloheximide, reference compound] |  |  | % Drel (relative degradation) ([1]; 10 μM, four hours): 78.78%; % Dab (adjusted degradation) ([1]; 10 μM, four hours, CHX set to 100): 100%; MFI (mean fluorescence intensity) of E7 signal ([1]; 10 μM, four hours, vehicle T 8.06): 1.71 |
| O=C(NOCC1CC1)c1ccc(F)c(F)c1Nc1ccc(I)cc1Cl [CI-1040, 2-(2-Chloro-4-iodophenylamino)-N-(cyclopropylmethoxy)-3,4-difluorobenzamide, reference compound] |  | 146% |  |
| COc1ccc2cc1Oc1ccc(cc1)C[C@H]1c3c(cc4c(c3Oc3cc5c(cc3OC)CCN(C)[C@@H]5C2)OCO4)CCN1C [Cepharantin, reference compound] |  |  | % Inhibition [3]: 2.32% |
| c1c2c(cc3c1OCO3)-c1cc3ccc4c(c3c[n+]1CC2)OCO4 [Coptisin, reference compound] |  |  | % Inhibition [3]: 98.97% |
| CS(=O)(=O)O.Cc1c(O)cccc1C(=O)N[C@@H](CSc1ccccc1)[C@H](O)CN1C[C@H]2CCCC[C@H]2C[C@H]1C(=O)NC(C)(C)C [Neifinavir-Mesylat, reference compound] |  |  | % Inhibition [3]: 9.49% |
| Cc1ccc(CN2C(=O)c3ccccc3C(C(=O)Nc3cccc(N4CCN(C)CC4)c3)C2c2ccc(Cl)c(Cl)c2)cc1 (centres unmarked) [OC245] | 0% |  |  |
| Cc1ccc(CN2C(=O)c3ccccc3C(C(=O)Nc3cccc(N4CCN(C)CC4)c3)C2c2ccc(Br)cc2)cc1 (centres unmarked) [OC247] | 6% | 30.6% | EC50 ([2]; read-out: EC50 mean [nM]): 6730 nM |
| Cc1ccc(CN2C(=O)c3ccccc3C(C(=O)NCCN(C)C)C2c2ccc(Cl)cc2)cc1 (centres unmarked) [OC250] | 19% |  |  |
| Cc1ccc(CN2C(=O)c3ccccc3C(C(=O)NCCN3CCCC3)C2c2ccc(Cl)cc2)cc1 (centres unmarked) [OC251] | 1% |  |  |
| COCCNC(=O)C1c2ccccc2C(=O)N(Cc2ccc(C)cc2)C1c1ccc(Cl)cc1 (centres unmarked) [OC252] | 0% |  |  |
| Cc1ccc(CN2C(=O)c3ccccc3C(C(=O)NCc3ccc(N(C)C)cc3)C2c2ccc(Cl)cc2)cc1 (centres unmarked) [OC254] | 16% |  |  |
| Cc1ccc(CN2C(=O)c3ccccc3C(C(=O)NCc3cccnc3)C2c2ccc(Cl)cc2)cc1 (centres unmarked) [OC255] | 2% |  |  |
| Cc1ccc(CN2C(=O)c3ccccc3C(C(=O)N3CCN(C)CC3)C2c2ccc(Cl)cc2)cc1 (centres unmarked) [OC256] | 8% |  |  |
| Cc1ccc(CN2C(=O)c3ccccc3C(C(=O)N3CCN(C=O)CC3)C2c2ccc(Cl)cc2)cc1 (centres unmarked) [OC258] | 0% |  |  |
| Cc1ccc(CN2C(=O)c3ccccc3C(C(=O)NCCN(C)C)C2c2ccc(C(F)(F)F)cc2)cc1 (centres unmarked) [OC377] | 35% | 81.6% | EC50 [2, 4]: 6750 nM |
| CN(C)CCNC(=O)C1c2ccccc2C(=O)N(Cc2ccc(C(F)(F)F)cc2)C1c1ccc(C(F)(F)F)cc1 (centres unmarked) [OC378] | 48% | 43.4% | EC50 [2, 4]: 5690 nM |
| Cc1ccc(C2C(C(=O)NCCN(C)C)c3ccccc3C(=O)N2Cc2ccc(C(F)(F)F)cc2)cc1 (centres unmarked) [OC379] | 26% | 33.4% | EC50 [2, 4]: 11900 nM |
| CN(C)CCNC(=O)C1c2ccccc2C(=O)N(Cc2ccc(N)cc2)C1c1ccc(C(F)(F)F)cc1 (centres unmarked) [OC380] | 3% | 72.6% | EC50 [2, 4]: 11400 nM |
| Cc1ccc(CN2C(=O)c3ccccc3C(C(=O)NCCN(C)C)C2c2ccc(C(F)(F)F)nc2)cc1 (centres unmarked) [OC381] | 41% | 43.7% | EC50 ([2]; read-out: EC50 mean [nM]): 17500 nM |
| CN(C)CCNC(=O)C1c2ccccc2C(=O)N(Cc2ccc(N(C)C)cc2)C1c1ccc(C(F)(F)F)cc1 (centres unmarked) [OC382] |  | 41.2% | EC50 [2, 4]: 2300 nM |
| CO[C@H]1C[C@@H]2CC[C@@H](C)[C@@](O)(O2)C(=O)C(=O)N2CCCC[C@H]2C(=O)O[C@H]([C@H](C)C[C@@H]2CC[C@@H](O)[C@H](OC)C2)CC(=O)[C@H](C)/C=C(\C)[C@@H](O)[C@@H](OC)C(=O)[C@H](C)C[C@H](C)/C=C/C=C/C=C/1C [Rapamycin, reference compound] |  | 21.1% |  |
